Columns and labels:
mGAT4 = biological target: T1, mGAT4 (Mus musculus, UniProt P31650); assay: [^3H]GABA uptake assay, HEK293 cells expressing mGAT4; format: cell-based; conditions: for remaining activity at 100 µM: HEK293, in presence of 100 μM compound; for IC50: [^3H]GABA uptake, pIC50±SEM
T1 construct: expressed in transfected cells; host or cells: HEK293
T1 sequence (P31650 1-627): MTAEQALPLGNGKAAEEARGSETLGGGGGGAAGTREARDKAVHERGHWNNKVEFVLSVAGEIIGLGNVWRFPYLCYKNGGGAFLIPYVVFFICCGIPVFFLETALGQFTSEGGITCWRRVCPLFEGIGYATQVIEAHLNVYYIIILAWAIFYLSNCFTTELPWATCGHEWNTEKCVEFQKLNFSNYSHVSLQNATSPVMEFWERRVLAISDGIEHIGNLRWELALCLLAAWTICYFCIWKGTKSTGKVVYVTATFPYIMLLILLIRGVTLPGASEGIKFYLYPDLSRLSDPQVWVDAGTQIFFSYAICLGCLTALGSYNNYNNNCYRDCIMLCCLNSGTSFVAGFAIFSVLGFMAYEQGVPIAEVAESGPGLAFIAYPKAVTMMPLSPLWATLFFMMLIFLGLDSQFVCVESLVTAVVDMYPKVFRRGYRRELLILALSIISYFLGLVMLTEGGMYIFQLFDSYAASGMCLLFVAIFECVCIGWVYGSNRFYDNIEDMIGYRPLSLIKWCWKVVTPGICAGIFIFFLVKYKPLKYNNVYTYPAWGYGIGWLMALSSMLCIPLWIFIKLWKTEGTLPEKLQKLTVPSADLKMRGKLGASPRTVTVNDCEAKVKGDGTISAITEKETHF
Method: (§1) For compounds with pIC50 ([^3H]GABA uptake assay) or pK i (MS Binding Assays) values close to or above 5.0, these experiments were repeated twice and SEM have been calculated.
(§2) [^3H]GABA uptake assays: The [^3H]GABA uptake assays were performed according to Kragler et al.33 Cells were grown in 150 cm^2 plates to a confluence of 70–90 % up to passage 25. After detachment the cells were centrifuged 5 min at 500×g, washed for three times in phosphate buffered saline and, finally, resuspended in Krebs buffer (2.5 mM CaCl2, 1.2 mM MgSO4, 1.2 mM KH2PO4, 4.7 mM KCl, 11 mM glucose, 25 mM Tris, 119 mM NaCl, pH 7.2). The uptake assays were performed with aliquots of the resulting cell suspension (about 100000–200000 cells per well) in a total volume of 250 μl in 96 well 2.2 mL deep well plates. The cells were equilibrated for 25 min in Krebs buffer in the presence of the test compound at 37 °C in a gently shaking water bath. […] After addition of 25 μl of a solution containing [^3H]GABA (2.22 TBq/mmol, ARC, St Louis, MO, USA) and unlabeled GABA in Krebs (final concentration 8 nM [^3H]GABA and 32 nM unlabeled GABA for mGAT1, mGAT3, mGAT4 and 20 nM [^3H]GABA and 20 nM unlabeled GABA for mGAT2) the cells were incubated for further 4 min (mGAT1, mGAT3, mGAT4) or 10 minutes (mGAT2), respectively. The incubation was stopped by filtration through Sartorius MGC micro glass fiber filters pre‐soaked for 1 h in 0.9 % NaCl by means of a Brandell MWXR‐96TI cell harvester (Brandell, Gaithersburg, MD, USA) under reduced pressure. The filters were rinsed two times with cold 0.9 % NaCl and subsequently transferred to 96 well sample plates (Perkin Elmer LAS, Boston, MA, USA). After addition of 200 μl Rotiszint Eco Plus (Roth, Karlsruhe, Germany) per well the radioactivity was determined in a microbeta liquid scintillation counter (Perkin Elmer LAS, Boston, MA, USA). Non‐specific uptake was determined in presence of 10 mM GABA for mGAT1, mGAT3 and mGAT4 or 100 mM GABA for mGAT2, respectively. The results are expressed as means±S.E.M. of at least three separate experiments, each carried out in triplicate.

mGAT1 [1] = biological target: T2, mGAT1 (Mus musculus, UniProt P31648); assay: MS Binding Assay with NO711 as native MS marker; conditions: in presence of 100 μM compound; read-out: remaining specific NO711 binding (mGAT1)
T2 construct: expressed in transfected cells; host or cells: HEK293
Method: as §1
MS Binding Assays: The MS Binding Assays were performed with mGAT1 membrane preparations obtained from a stably mGAT1 expressing HEK293 cell line and NO711 as unlabeled marker in competitive binding experiments as previously described in detail.34 In short, test compounds were investigated at 7 concentrations in presence of 10 nM NO 711 in competition experiments. Non specific binding was defined as binding remaining in the presence of 100 mM GABA. Incubation was terminated by transfer of 200 μL per well onto a 96‐well filter plate (Acroprep, glass fibre, 1.0 μm, 350 μL, Pall, Dreieich, Germany) with a 12 channel pipette. After rapid vacuum‐filtration the filters were washed with ice cold 0.9 % NaCl (5×150 μL) and dried at 50 °C for 60 min. Afterwards, the filters were eluted with 100 μL methanol containing [^2H10]NO711 (1.4 nM) as internal standard per well into a deep‐well plate by application of vacuum. This step was repeated twice resulting in a total elution volume of 300 μL. Finally, a volume of 130 μL ammonium formate buffer (10 mM, pH 7.0) was added per well and the generated samples analyzed by LC‐ESI‐MS/MS using a API 3200 as described in detail previously.40

mGAT1 [2] = biological target: T2, mGAT1; assay: [^3H]GABA uptake assay, HEK293 cells expressing mGAT1; format: cell-based; conditions: for remaining activity at 100 µM: HEK293, in presence of 100 μM compound
Method: as §1, §2

mGAT2 = biological target: T3, mGAT2 (Mus musculus, UniProt P31651); assay: [^3H]GABA uptake assay, HEK293 cells expressing mGAT2; format: cell-based; conditions: for remaining activity at 100 µM: HEK293, in presence of 100 μM compound; for IC50: [^3H]GABA uptake, pIC50±SEM
T3 construct: expressed in transfected cells; host or cells: HEK293
T3 sequence (P31651 1-614): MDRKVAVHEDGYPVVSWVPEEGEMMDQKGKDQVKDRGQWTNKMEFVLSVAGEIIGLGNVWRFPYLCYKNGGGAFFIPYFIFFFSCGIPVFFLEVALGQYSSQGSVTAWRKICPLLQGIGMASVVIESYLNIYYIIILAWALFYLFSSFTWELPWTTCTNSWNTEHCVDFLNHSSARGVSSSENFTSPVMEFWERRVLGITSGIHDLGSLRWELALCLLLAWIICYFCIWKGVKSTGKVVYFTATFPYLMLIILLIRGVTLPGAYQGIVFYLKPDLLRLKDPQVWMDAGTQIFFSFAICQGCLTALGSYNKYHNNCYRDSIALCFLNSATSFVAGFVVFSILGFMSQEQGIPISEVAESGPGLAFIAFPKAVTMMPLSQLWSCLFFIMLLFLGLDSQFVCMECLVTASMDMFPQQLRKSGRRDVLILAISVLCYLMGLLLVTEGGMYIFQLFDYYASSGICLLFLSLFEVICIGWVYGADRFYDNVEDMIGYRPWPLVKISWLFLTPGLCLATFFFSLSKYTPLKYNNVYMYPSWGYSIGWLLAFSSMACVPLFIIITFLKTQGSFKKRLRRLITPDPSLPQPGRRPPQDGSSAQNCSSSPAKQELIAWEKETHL
Method: as §1, §2

mGAT3 = biological target: T4, mGAT3 (Mus musculus, UniProt P31649); assay: [^3H]GABA uptake assay, HEK293 cells expressing mGAT3; format: cell-based; conditions: for remaining activity at 100 µM: HEK293, in presence of 100 μM compound; for IC50: [^3H]GABA uptake, pIC50±SEM
T4 construct: expressed in transfected cells; host or cells: HEK293
T4 sequence (P31649 1-602): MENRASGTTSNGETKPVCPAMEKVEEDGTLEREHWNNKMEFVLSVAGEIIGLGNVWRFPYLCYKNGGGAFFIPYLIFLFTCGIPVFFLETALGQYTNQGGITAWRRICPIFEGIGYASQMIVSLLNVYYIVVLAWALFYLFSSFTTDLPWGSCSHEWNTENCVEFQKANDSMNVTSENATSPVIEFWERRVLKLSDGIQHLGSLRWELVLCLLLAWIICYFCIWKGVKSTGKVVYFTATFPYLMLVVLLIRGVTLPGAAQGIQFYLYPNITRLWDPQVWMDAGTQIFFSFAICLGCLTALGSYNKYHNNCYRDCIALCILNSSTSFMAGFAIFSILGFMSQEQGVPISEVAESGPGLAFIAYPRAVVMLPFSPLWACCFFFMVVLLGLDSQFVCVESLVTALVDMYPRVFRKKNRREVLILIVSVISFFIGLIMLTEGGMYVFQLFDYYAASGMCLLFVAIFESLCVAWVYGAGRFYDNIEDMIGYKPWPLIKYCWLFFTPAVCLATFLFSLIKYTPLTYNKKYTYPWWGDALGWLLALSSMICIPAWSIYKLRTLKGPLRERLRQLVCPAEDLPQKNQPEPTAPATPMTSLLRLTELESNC
Method: as §1, §2

SMILES | remaining activity at 100 µM (mGAT4) [%] | remaining activity at 100 µM (mGAT1 [1]) [%] | remaining activity at 100 µM (mGAT1 [2]) [%] | remaining activity at 100 µM (mGAT2) [%] | remaining activity at 100 µM (mGAT3) [%] | IC50 (mGAT4) [µM] | IC50 (mGAT1 [2]; [^3H]GABA uptake, pIC50±SEM) [µM] | IC50 (mGAT2) [µM] | IC50 (mGAT3) [µM]
CCOC(=O)C1CCCN(CCOC(c2ccc(OC)cc2)(c2ccc(OC)cc2)c2ccc(C(C)=O)cc2)C1 (racemic) [12 b, rac‐ Ethyl 1‐{2‐[(4‐acetylphenyl)bis(4‐methoxyphenyl)methoxy]ethyl}‐piperidine‐3‐carboxylate] | 84.2 | 84.6 | 72.9 | 66.4 | 55.2 | – | – | – | –
CCOC(=O)C1CCCN(CCOC(c2ccc(OC)cc2)(c2ccc(OC)cc2)c2ccc(S(=O)(=O)N(C)C)cc2)C1 (racemic) [12 c, rac‐ Ethyl 1‐(2‐{[4‐(N,N‐dimethylsulfamoyl)phenyl]bis[4‐methoxyphenyl]‐methoxy}ethyl)piperidine‐3‐carboxylate] | 94.3 | 93.8 | 75.7 | 73.2 | 95.9 | – | – | – | –
CCOC(=O)C1CCCN(CCOC(c2ccc(OC)cc2)(c2ccc(OC)cc2)c2ccc3nccn3c2)C1 (racemic) [12 d, rac‐ Ethyl 1‐(2‐{imidazo[1,2‐a]pyridin‐6‐ylbis(4‐methoxyphenyl)methoxy}‐ethyl)piperidine‐3‐carboxylate] | – | 77.2 | – | – | – | 57.5 | 40.7 | 13.2 | 19.5
CCOC(=O)c1ccc(C(OCCN2CCCC(C(=O)OCC)C2)(c2ccc(OC)cc2)c2ccc(OC)cc2)cc1 (racemic) [12 e, rac‐ Ethyl 1‐(2‐{[4‐(ethoxycarbonyl)phenyl]bis[4‐methoxyphenyl]‐methoxy}ethyl)piperidine‐3‐carboxylate] | 76.1 | 74.8 | 84.6 | 87.3 | 79 | – | – | – | –
CCOC(=O)C1CCCN(CCOC(c2ccc(COC)cc2)(c2ccc(OC)cc2)c2ccc(OC)cc2)C1 (racemic) [12 f, rac‐ Ethyl 1‐(2‐{[4‐(methoxymethyl)phenyl]bis[4‐methoxyphenyl]‐methoxy}ethyl)piperidine‐3‐carboxylate] | 50.8 | 55.3 | 66.6 | 58.8 | 56.9 | – | – | – | –
CCOC(=O)C1CCCN(CCOC(c2ccc(C#N)cc2)(c2ccc(OC)cc2)c2ccc(OC)cc2)C1 (racemic) [12 g, rac‐ Ethyl 1‐{2‐[(4‐cyanophenyl)bis(4‐methoxyphenyl)methoxy]ethyl}‐piperidine‐3‐carboxylate] | 71.9 | 97.6 | 76.6 | 80.7 | 63.6 | – | – | – | –
CCOC(=O)C1CCCN(CCOC(c2ccc(COC)cc2)(c2ccc(COC)cc2)c2ccc(OC)cc2)C1 (racemic) [12 h, rac‐ Ethyl 1‐(2‐{bis[4‐(methoxymethyl)phenyl][4‐methoxyphenyl]‐methoxy}ethyl)piperidine‐3‐carboxylate] | – | 72.9 | 64.9 | – | 50.6 | 89.1 | – | 50.1 | –
CCOC(=O)C1CCCN(CCOC(c2ccc(COC)cc2)(c2ccc(COC)cc2)c2ccc(COC)cc2)C1 (racemic) [12 i, rac‐ Ethyl 1‐(2‐{tris[4‐(methoxymethyl)phenyl]methoxy}ethyl)piperidine‐3‐carboxylate] | 51.4 | 87.5 | 70.3 | 65 | – | – | – | – | 95.5
CCOC(=O)C1CCCN(CCOC(c2ccc(OC)cc2)(c2ccc(OC)cc2)c2ccc(C(N)=O)cc2)C1 (racemic) [12 j, rac‐ Ethyl 1‐{2‐[(4‐carbamoylphenyl)bis(4‐methoxyphenyl)methoxy]‐ethyl}piperidine‐3‐carboxylate] | 60 | 89.3 | 57.8 | 56.1 | – | – | – | – | 79.4
CCOC(=O)C1CCCN(CCOC(C(=O)OC)(c2ccc(OC)cc2)c2ccc(OC)cc2)C1 (racemic) [12 k, rac‐ Ethyl 1‐{2‐[2‐methoxy‐1,1‐bis(4‐methoxyphenyl)‐2‐oxoethoxy]ethyl}‐piperidine‐3‐carboxylate] | 78.2 | 90.8 | 89.1 | 92.6 | 64.1 | – | – | – | –

From PMC7317212 (Chemmedchem, 2020)
